Laboratory results from patent publication US12503440B2, “Nitroxoline derivative, preparation method therefor, and use thereof” (Jiangsu Yahong Meditech Co., Ltd., priority 2020, dated 2025).
In brackets after ≈: the same amount, converted by molar mass.

How the values were obtained:
Assay type in all cases: cell-based
[1] = system: Endothelial cell line HUVEC; assay: Inhibitory activity on cells, CellTiter-Glo viability, 72 h; conditions: Homo sapiens
Description: (§1) • HUVEC (purchased from Allcells Biological Technology (Shanghai) Co., Ltd.); UM-UC-3 (ATCC); LNCaP Clone FGC (ATCC); RM-1 (purchased from Nanjing Cobioer Biosciences Co., Ltd.) 2. Reagents • Endothelial cell complete medium (Allcells, H-004) • Medium RPMI1640 (ATCC, 30-2001) • Medium EMEM (ATCC, 30-2003) • Medium DMEM (Gibco, 12430-054) • Fetal bovine serum (Gibco, 10091148) • Penicillin-streptomycin double anti-body (Gibco, S110JV) • DPBS (Gibco, 14190-144) • CellTiter-Glo® kit (Promega, G7573) • Trypsin (0.25%), phenol red (Gibco, 25200-056) • DMSO (Sigma, D2650) 3. Instruments • Biological safety cabinet (Suzhou Antai Airtech Co., Ltd., BSC-1300A II) • Inverted microscope (Nikon, CKX53) • Automated cell counter (Life Technologies, countess II) • Multifunctional microplate reader (Biotek, H1FM) • Shaker (Hangzhou Allsheng Instruments Co., Ltd., OS-100) • GraphPad Prism 5.0 software • XLFIT 5.3 (Inforstack Shanghai Co., Ltd.) 4. Test Method
(§2) In this test method, the following experiments were carried out in a biological safety cabinet, and the specific steps are as follows: • (1) On the first day, the cells were seeded in a 96-well plate, and the previous medium was poured off. 5 mL of DPBS was added to wash the cells, and then removed by a pipette. Then, 1 mL of trypsin (0.25%) was added, and the plate was placed in a cell culture incubator at 37° C., 5% CO2 for digestion, and taken out after about 2 to 5 minutes. New corresponding medium was added, and pipetted to resuspend the cells evenly, and the cells were then counted with an automated cell counter.
(§3) The digestion was observed using an inverted microscope.
(§4) Regarding to HUVEC, the medium used was endothelial cell complete medium; regarding to UM-UC-3, the medium used was 89v % EMEM+10v % fetal bovine serum+1 v % penicillin-streptomycin double anti-body; regarding to LNcaP Clone FGC, the medium used was 89v % RPM11640+10v % fetal bovine serum+1 v % penicillin-streptomycin double anti-body; and regarding to RM-1, the medium used was 89v % DMEM+10v % fetal bovine serum+1v % penicillin-streptomycin double anti-body. • (2) HUVEC cells were seeded in columns 1 to 11 of a 96-well plate (Corning, Cat. No. 3610) at a density of 2000 cells per well in 100 μL of medium, and the medium free of cell was added to the wells of column 12. The other three types of cells were also seeded, wherein UM-UC-3 and RM-1 cells were seeded at a density of 3000 cells per well, and LNCap Clone FGC cells were seeded at a density of 5000 cells per well. Then, the plate was placed in an incubator at 37° C., 5% CO2 for 24 hours. • (3) On the second day, the compounds of the present invention and the reference drug nitroxoline (obtained according to the preparation method disclosed in the prior art) were diluted in gradient (2.5 folds, started at 100 μmol) to obtain 8 dose points (there were a total of 8 columns of wells; the first column of wells had the highest concentration, the concentration decreased in turn, and the last column of wells had the lowest concentration). 10 uL of the compound diluted in gradient was added to the 100 μL of cells in column 1 to column 10 with an 8-channel pipette. 10 μL of the corresponding medium containing 0.33v % DMSO was added to column 11 and column 12. The plate was incubated in an incubator at 37° C., 5% CO2 for 72 hours (note: column 11 was used as MAX well with cells and no compounds; and column 12 was used as MIN well with no cells and no compounds). • (4) After treating with the compounds of the present invention for 72 hours, the cell viability detection reagents in the above CellTiter-Glo® kit were added to the 96-well plate at 50 μL per well according to the instructions. […]

[2] = system: Prostate cancer cell line LNcaP Clone FGC; assay: Inhibitory activity on cancer cells, CellTiter-Glo viability, 72 h; conditions: Homo sapiens
Description: as §1, §2, §3, §4

[3] = system: Bladder cancer cell line UM-UC-3; assay: as above; conditions: Homo sapiens, UMUC3, UM-UC-3, 72 h
Description: as §1, §2, §3, §4

[4] = system: Mouse prostate cancer cell line RM-1; assay: as above; conditions: RM-1, 72 h
Description: as §1, §2, §3, §4

Staphylococcus aureus = assay: Bacteriostatic activity, micro broth dilution MIC (CLSI); conditions: 20 hours; for MIC50 / MIC90: clinical strains (methicillin-resistant and sensitive), CAMHB; for MIC50: read-out: Staphylococcus aureus Clinical strain MIC50; for MIC90: read-out: Staphylococcus aureus Clinical strain MIC90; for MIC: standard strain ATCC29213, CAMHB
Description: (§5) The purpose of this test is to determine the bacteriostatic activity of the compounds of the present invention against a representative panel of strains (Gram-negative bacteria: […] ATCC 25922, Acinetobacter baumannii ATCC 19606; Gram-positive bacteria: Staphylococcus aureus ATCC29213). Bacteriostatic activity was determined by minimum inhibitory concentration (MIC), MIC50, MIC90. This test was entrusted to Shanghai Junj Lab Co., Ltd. Except for the test drugs, all other test materials were provided by Shanghai Junj Lab Co., Ltd.
(§6) The tested bacteria were several strains of clinically isolated carbapenem-resistant Escherichia coli, several strains of carbapenem-resistant Acinetobacter baumannii, several strains of methicillin-resistant Staphylococcus aureus, and several strains of sensitive Staphylococcus aureus. Duplicate strains isolated from the same patient were eliminated. There were also three quality control strains Escherichia coli ATCC 25922, Acinetobacter baumannii ATCC 19606, and Staphylococcus aureus ATCC 29213. The activity test of each compound was carried out on one or more strains of each of the above test bacteria.
(§7) According to the recommendations of relevant documents of the American Clinical and Laboratory Standards Institute (CLSI), the micro broth dilution method was used to determine the MIC of the compounds of the present invention against clinically isolated strains. The culture solution free of drug was used as the test bacteria positive control, the culture solution free of bacterial solution was used as the drug negative control, and the culture solution free of drug solution and bacterial solution was used as the blank control. • 4.1 Formulation of antibacterial drug: All the compounds of the present invention were dissolved in DMSO. The drug concentration range was 128 mg/L-0.06 mg/L. Specific method: The compounds of the present invention were successively diluted by 1:1 with DMSO to obtain an intermediate series with a range of 25600 mg/L-12.5 mg/L. 30 μL of solution from each tube of the intermediate series of each compound was added to a 3 mL/tube series of single broth tube, and mixed well to obtain an intermediate series with a range of 256 mg/L to 0.125 mg/L. The diluted series solution was added to the drug susceptibility plate line by line, 50 μL of solution per well. All ranges became investigated ranges after being mixed with an equal volume of bacterial solution: 128-0.06 mg/L. • 4.2 Culture medium: The drug susceptibility test used cation adjusted Mueller-Hinton broth (CAMHB). • 4.3 Amount of inoculum: The test bacteria cultured overnight were adjusted to 0.5 McFarland turbidity by the direct colony suspension method, and diluted 100 folds, the final inoculum amount was 10^5 CFU/mL. • 4.4 Culture conditions: The test bacteria were cultured at 35±2° C. for 20 hours in air. 5. Interpretation and Judgment of Results
(§8) The drug susceptibility test results were interpretated by reference to CLSI 2019 edition M100 29th edition criteria.
(§9) The results of drug susceptibility test were statistically analyzed by WHONET version 5.6 software.
(§10) The culture solution free of bacterial solution was used as the drug negative control, and the culture solution free of drug solution and bacterial solution was used as the blank control, wherein no bacteria grew in both solutions.

Escherichia coli = assay: as above; conditions: 20 hours; for MIC50 / MIC90: clinical strains (carbapenem-resistant), CAMHB; for MIC50: read-out: Escherichia coli Clinical strain MIC50; for MIC90: read-out: Escherichia coli Clinical strain MIC90; for MIC: standard strain ATCC25922, CAMHB
Description: as §5, §6, §7, §8, §9, §10

Acinetobacter baumannii = assay: as above; conditions: 20 hours; for MIC50 / MIC90: clinical strains (carbapenem-resistant), CAMHB; for MIC50: read-out: Acinetobacter baumannii Clinical strain MIC50; for MIC90: read-out: Acinetobacter baumannii Clinical strain MIC90; for MIC: standard strain ATCC19606, CAMHB
Description: as §5, §6, §7, §8, §9, §10

IC50 [2] [nM] | IC50 [3] [nM] | IC50 [4] [nM] | MIC50 (Staphylococcus aureus) [µg/mL] | MIC90 (Staphylococcus aureus) [µg/mL] | MIC (Staphylococcus aureus) [µg/mL] | MIC50 (Escherichia coli) [µg/mL] | MIC90 (Escherichia coli) [µg/mL] | MIC50 (Acinetobacter baumannii) [µg/mL] | MIC90 (Acinetobacter baumannii) [µg/mL] | MIC (Escherichia coli) [µg/mL] | MIC (Acinetobacter baumannii) [µg/mL] | SMILES | IC50 [1] [nM]
2700 | 4000 | 2700 |  |  |  |  |  |  |  |  |  | CCOC(=O)N1CCN(c2ccnc3c(O)ccc([N+](=O)[O-])c23)CC1 [Example 22, ethyl 4-(8-hydroxy-5-nitroquinolin-4-yl)piperazine-1-carboxylate] | 3000
1700 | 500 | 1000 | 4 (≈ 15 µM) | 8 (≈ 30 µM) | 4 (≈ 15 µM) | 128 (≈ 481 µM) | 128 (≈ 481 µM) | 128 (≈ 481 µM) | 128 (≈ 481 µM) |  |  | O=[N+]([O-])c1ccc(O)c2nccc(-c3ccccc3)c12 [Example 9, 5-nitro-4-phenylquinolin-8-ol] | 1300
800 | 1700 | 1000 | 4 (≈ 15.5 µM) | 4 (≈ 15.5 µM) | 4 (≈ 15.5 µM) | 32 (≈ 124 µM) | 64 (≈ 248 µM) | 32 (≈ 124 µM) | 64 (≈ 248 µM) | 64 (≈ 248 µM) | 32 (≈ 124 µM) | O=[N+]([O-])c1ccc(O)c2nccc(C3CCCC3)c12 [Example 24, 4-cyclopentyl-5-nitroquinolin-8-ol] | 1400
1800 | 1500 | 2100 | 4 (≈ 18.2 µM) | 4 (≈ 18.2 µM) | 4 (≈ 18.2 µM) | 32 (≈ 145 µM) | 32 (≈ 145 µM) | 32 (≈ 145 µM) | 32 (≈ 145 µM) | 32 (≈ 145 µM) | 32 (≈ 145 µM) | COc1ccnc2c(O)ccc([N+](=O)[O-])c12 [Example 16, 4-methoxy-5-nitroquinolin-8-ol] | 
5100 | 9200 | 4300 |  |  |  |  |  |  |  |  |  | O=[N+]([O-])c1ccc(O)c2ncccc12 [Nitroxoline, 5-nitro-8-hydroxyquinoline] | 4500
1900 | 2400 | 900 | 2 (≈ 8.69 µM) | 4 (≈ 17.4 µM) | 4 (≈ 17.4 µM) | 8 (≈ 34.7 µM) | 16 (≈ 69.5 µM) | 8 (≈ 34.7 µM) | 16 (≈ 69.5 µM) | 8 (≈ 34.7 µM) | 16 (≈ 69.5 µM) | O=[N+]([O-])c1ccc(O)c2nccc(C3CC3)c12 [Example 19, 4-cyclopropyl-5-nitroquinolin-8-ol] | 1300
1200 | 1600 | 2000 |  |  |  |  |  |  |  |  |  | CC1CCCCN1c1ccnc2c(O)ccc([N+](=O)[O-])c12 (stereo not drawn) [Example 13, 4-(2-methylpiperidin-1-yl)-5-nitroquinolin-8-ol] | 2500
4900 | 2000 | 3100 | 4 (≈ 17.8 µM) | 4 (≈ 17.8 µM) |  | 8 (≈ 35.6 µM) | 8 (≈ 35.6 µM) | 4 (≈ 17.8 µM) | 8 (≈ 35.6 µM) | 8 (≈ 35.6 µM) |  | O=[N+]([O-])c1ccc(O)c2nccc(Cl)c12 [Example 2, 4-chloro-5-nitroquinolin-8-ol] | 3000
